{"source": "patent US20040101542A1", "about": "“Skin care composition with retinyl ester as vitamin a propionate retinyl palmitate d-alpha tocopherol rice amino acids and liposomes and method of application” (priority 2003, published 2004)", "origin": "cited, not measured here", "settings": "at 24 hours", "data": [{"smiles": "CC1=C(/C=C/C(C)=C/C=C/C(C)=C/C(=O)O)C(C)(C)CCC1", "note": "[retinoic acid]", "values": [{"measurement": "uptake and distribution in the deeper skin strata, liposomal formulations versus solutions or emulsions", "result": "3-4 times higher"}]}]}
